# Assay results: EP4616862A1, “ANTIVIRAL C[…] DERIVED FROM NUCLEIC ACID AND PHARMACEUTICALLY ACCEPTABLE SALTS THEREOF” (priority 2022, dated 2024)
# pIC50: −log10 of the molar value. Read-outs that look alike come from different tables or passages of the source.
# Assays:
# [1] = test system: African Swine Fever Virus (ASFV, China/2018/AnhuiXCGQ); test: microbe, parasite or virus in culture; assay type: cell-based; settings: for pIC50: African swine fever virus, 48 h, read-out: IC50 (ASFV infection inhibition concentration)
# [2] = test system: Classical Swine Fever Virus (CSFV); test: microbe, parasite or virus in culture; assay type: cell-based; settings: for pIC50: Classical swine fever virus, PK-15, 48 h, read-out: IC50 (CSFV infection inhibition concentration)
# [3] = test system: Low pathogenic avian influenza virus (LPAIV, H9N2); test: microbe, parasite or virus in culture; assay type: cell-based; settings: for pIC50: unidentified influenza virus, H9N2, MDCK, 48 h, read-out: IC50 (LPAIV infection inhibition concentration)
# [4] = test system: Canine coronavirus (CCoV); test: microbe, parasite or virus in culture; assay type: cell-based
# Canine adenovirus (CAV) = test: CAV infection inhibition in Vero cells (qPCR of viral DNA); assay type: cell-based; settings: for SI (selectivity index): CAV, CC50/IC50; for pIC50: Canine mastadenovirus A, 48 h, Vero cell line, CAV 100 TCID50/well, simultaneous treatment, 2 days, qPCR, read-out: IC50 (CAV infection inhibition concentration)
# [5] = test system: Canine distemper virus (CDV); test: microbe, parasite or virus in culture; assay type: cell-based; settings: for pIC50: canine distemper virus, Vero, 72 h, read-out: IC50 (CDV infection inhibition concentration)
# Feline parvovirus (FPV) = test: microbe, parasite or virus in culture; assay type: cell-based; settings: for pIC50: Feline parvovirus, CRFK, 48 h, read-out: IC50 (FPV infection inhibition concentration)
# Feline Calicivirus (FCV) = test: microbe, parasite or virus in culture; assay type: cell-based; settings: for pIC50: Feline calicivirus, CRFK, 24 h, read-out: IC50 (FCV infection inhibition concentration)
# FIPV = FIPV infection inhibition in FCWF-4 cells (RT-qPCR); assay type: cell-based, Feline Infectious peritonitis virus; settings: for pIC50: FCWF-4 cell line; for SI (selectivity index): CC50/IC50
# [6] = test system: foot and mouth disease virus (FMDV); test: microbe, parasite or virus in culture; assay type: cell-based; settings: for pIC50: Foot-and-mouth disease virus, BHK-21, 36 h, read-out: IC50 (FMDV infection inhibition concentration)
# [7] = Cytotoxicity (CCoV example); assay type: cell-based, canine; settings: Table 4 (CCoV), cell line for cytotoxicity not given
# [8] = Cytotoxicity (CAV example); assay type: cell-based, monkey; settings: Table 5 (CAV), cell line for cytotoxicity not given
# [9] = Cytotoxicity (CDV example); assay type: cell-based, monkey; settings: Table 6 (CDV), cell line for cytotoxicity not given
# [10] = Cytotoxicity (FPV example); assay type: cell-based, feline; settings: Table 7 (FPV), cell line for cytotoxicity not given
# [11] = Cytotoxicity (FCV example); assay type: cell-based, feline; settings: Table 8 (FCV), cell line for cytotoxicity not given
# [12] = Cytotoxicity (FIPV example); assay type: cell-based, feline; settings: Table 9 (FIPV), cell line for cytotoxicity not given
# ISG15 = assay type: cell-based, Pig
# Mx1 = assay type: cell-based, Pig
# RNaseL = assay type: cell-based, Pig
# in vitro [13] = test: in vitro
# in vitro [14] = test: in vitro; remark: listed apart in the source
# in vitro [15] = test: in vitro; remark: listed apart in the source
# in vitro [16] = test: in vitro; remark: listed apart in the source
# [17] = Alphacoronavirus 1, A-72, 48 h, read-out: IC50 (CCoV infection inhibition concentration)
# [18] = Alphacoronavirus 1, 48 h, FIPV 100 TCID50/well, simultaneous treatment, 2 days, RT-qPCR, read-out: IC50 (FIPV infection inhibition concentration)
Compound,SI (selectivity index) [1],pIC50 [1],SI (selectivity index) [2],pIC50 [2],pIC50 [3],SI (selectivity index) [4],"pIC50 [4, 17]",SI (selectivity index) (Canine adenovirus (CAV)),pIC50 (Canine adenovirus (CAV)),SI (selectivity index) [5],pIC50 [5],SI (selectivity index) (Feline parvovirus (FPV)),pIC50 (Feline parvovirus (FPV)),SI (selectivity index) (Feline Calicivirus (FCV)),pIC50 (Feline Calicivirus (FCV)),pIC50 (FIPV; [18]),SI (selectivity index) (FIPV; FIPV),SI (selectivity index) [6],pIC50 [6],Fold change (multiple increase compared to control group) ISG15 (ISG15),other results
"O=C[C@@H](CO)O[C@H](C=O)n1cnc2c(=O)[nH]cnc21 [Dialdehyde-Inosine, dialdehyde form of inosine]",> 103.5,> 4.02,> 42.0,> 3.62,> 3.57,> 221.7,> 4.35,> 30.7,> 3.49,> 93.9,> 3.97,> 192,> 4.28,> 384.6,> 4.59,> 4.34,> 219.9,> 22.9,> 3.36,4.0 (±0.6),"SI (selectivity index) [3]: > 37.4; pIC50 ([4]; Alphacoronavirus 1, A-72): 4.35; pIC50 (FIPV; Alphacoronavirus 1, FIPV, read-out: IC50): 4.34; CC50 [7]: > 10000 µM; CC50 [8]: > 10000 µM; CC50 [9]: > 10000 µM; CC50 [10]: > 10000 µM; CC50 [11]: > 10000 µM; CC50 [12]: > 10000 µM; Fold change (multiple increase compared to control group) Mx1 (Mx1): 3.5 (±1.1); Fold change (multiple increase compared to control group) RNaseL (RNaseL): 3.0 (±0.2); CC50 (in vitro [13]): > 10000 µM; CC50 (in vitro [14]): > 10000 µM; CC50 (in vitro [15]): > 10000 µM; CC50 (in vitro [16]): > 10000 µM"
"O=c1[nH]c(=O)c2ncn([C@@H](CO)OC(CO)CO)c2[nH]1 [Acyclic diol-Xanthosine, acyclic diol form of xanthosine]",> 8.6,> 2.93,> 3.4,> 2.53,> 2.70,> 3.8,> 2.58,> 7.4,> 2.87,> 4.9,> 2.69,> 1.7,> 2.24,> 64.5,> 3.81,> 2.99,> 9.8,> 5.0,> 2.70,4.7 (±1.3),"CC50 ([7]; dog, a-72 cells): > 10000 µM; CC50 ([8]; monkey, vero cells): > 10000 µM; CC50 ([9]; monkey, vero cells): > 10000 µM; CC50 ([10]; cat, crfk cells): > 10000 µM; CC50 ([11]; cat, crfk cells): > 10000 µM; CC50 ([12]; cat, fcwf-4 cells): > 10000 µM; Fold change (multiple increase compared to control group) Mx1 (Mx1): 2.7 (±1.4); Fold change (multiple increase compared to control group) RNaseL (RNaseL): 1.7 (±0.3); CC50 (in vitro [13]; pig, pam cells): > 10000 µM; CC50 (in vitro [14]; pig, pk15 cells): > 10000 µM; CC50 (in vitro [15]; dog, mdck): > 10000 µM; CC50 (in vitro [16]; hamster, bhk-21 cells): > 10000 µM"
